Data on twelve molecules can be found in ChEMBL document CHEMBL2440045, “The synthesis and anticancer activity of analogs of the indole phytoalexins brassinin, 1-methoxyspirobrassinol methyl ether and cyclobrassinin” (Bioorg Med Chem, 2013).

In general, IC50 refers to the concentration that gives 50% inhibition.

Molecules are shown by their SMILES.

Common to all, as to format: functional, cell-based
The subject of assay [1] is HeLa. The assay is described as follows: Antiproliferative activity against human HeLa cells assessed as cell viability after 72 hrs by MTT assay. (In general: Tetrazolium assays rely on reduction of a dye to a coloured formazan, in cell work by metabolically active cells.)
For assay [2], the system named is Jurkat. The assay is described as follows: Antiproliferative activity against human Jurkat cells assessed as cell viability after 72 hrs by MTT assay.
The test system of assay [3] is MDA-MB-231. Briefly: Antiproliferative activity against human MDA-MB-231 cells assessed as cell viability after 72 hrs by MTT assay. The following applies: MDA-MB-231, 72 h.
Assay [4] deals with MCF7. The assay is described as follows: Antiproliferative activity against human MCF7 cells assessed as cell viability after 72 hrs by MTT assay. Particulars: MCF7, 72 h.
Assay [5] relates to CCRF-CEM. Briefly: Antiproliferative activity against human CCRF-CEM cells assessed as cell viability after 72 hrs by MTT assay.
The test system of assay [6] is A549. Briefly: Antiproliferative activity against human A549 cells assessed as cell viability after 72 hrs by MTT assay. The following applies: A549, 72 h.

For the molecule `COc1ccc(NC2=NC[C@]3(S2)c2ccccc2N(C(=O)OC(C)(C)C)[C@@H]3OC)cc1` (racemic), the IC50 in assay [1] worked out at 25 µM; in assay [2] it was 25 µM; in assay [3] it was 38.3 µM; in assay [4] it was 31.2 µM; in assay [5], 24.7 µM; in assay [6], 31.3 µM.

As for `CO[C@H]1N(C(=O)OC(C)(C)C)c2ccccc2[C@@]12CN=C(Nc1ccc(C)cc1)S2` (racemic), the IC50 in assay [1] was determined as 20.2 µM; in assay [2] it was 25.7 µM; in assay [3] it was 35.6 µM; in assay [4], 32.9 µM; in assay [5], 14.4 µM; in assay [6] it was 31.4 µM.

Consider `CO[C@@H]1N(C(=O)OC(C)(C)C)c2ccccc2[C@@]12CN=C(Nc1ccc(C)cc1)S2` (racemic), for which the IC50 in assay [1] turned out to be 23 µM; in assay [2], 9 µM; in assay [3] it was 35.5 µM; in assay [4], 31.5 µM; in assay [5], 19 µM; in assay [6], 30.5 µM.

In the case of `CO[C@H]1N(C(=O)OC(C)(C)C)c2ccccc2[C@@]12CN=C(Nc1ccc([N+](=O)[O-])cc1)S2` (racemic), the IC50 in assay [1] was 31.3 µM; in assay [2], 20.2 µM; in assay [3], 37.5 µM; in assay [4], 33 µM; in assay [5], 18.4 µM; in assay [6], 33 µM.

Consider `CO[C@H]1N(C(=O)OC(C)(C)C)c2ccccc2[C@@]12CN=C(Nc1ccc(C(F)(F)F)cc1)S2` (racemic), for which the IC50 in assay [1] worked out at 32.7 µM; in assay [2], 9.3 µM; in assay [3] it was 28.6 µM; in assay [4], 26.5 µM; in assay [5], 7.2 µM; in assay [6], 24.6 µM.

For the molecule `CO[C@@H]1N(C(=O)OC(C)(C)C)c2ccccc2[C@@]12CN=C(Nc1ccc(C(F)(F)F)cc1)S2` (racemic), the IC50 in assay [1] was found to be 11.3 µM; in assay [2], 5.6 µM; in assay [3], 21.3 µM; in assay [4] it was 11.1 µM; in assay [5], 6.7 µM; in assay [6], 17.9 µM.

Take `CO[C@@H]1N(C(=O)OC(C)(C)C)c2ccccc2[C@@]12CN=C(Nc1cc(C(F)(F)F)cc(C(F)(F)F)c1)S2` (racemic): the IC50 in assay [1] worked out at 34.2 µM; in assay [2] it was 21.5 µM; in assay [3] it was 38.6 µM; in assay [4], 20.9 µM; in assay [5], 17.2 µM; in assay [6] it was 29 µM.

As for `CO[C@@H]1N(C(=O)OC(C)(C)C)c2ccccc2[C@@]12CN=C(N(C)c1ccccc1)S2` (racemic), the 50% inhibitory concentration (IC50) was 32 µM in assay [1]; 26 µM in assay [2]; 27.5 µM in assay [3]; 28 µM in assay [4]; 26.6 µM in assay [5]; 28.7 µM in assay [6].

On to `CNC1=NC[C@]2(S1)c1ccccc1N(C(=O)OC(C)(C)C)[C@@H]2OC` (racemic), for which the IC50 is > 100 µM in assay [1]; 83.4 µM in assay [2]; > 100 µM in assay [3]; > 100 µM in assay [4]; 44.4 µM in assay [5]; > 100 µM in assay [6].

As for `CNC1=NC[C@]2(S1)c1ccccc1N(C(=O)OC(C)(C)C)[C@H]2OC` (racemic), the IC50 in assay [1] was > 100 µM; in assay [2] it was 42 µM; in assay [3], > 100 µM; in assay [4] it was > 100 µM; in assay [5], 53 µM; in assay [6], > 100 µM.

`CO[C@H]1N(C(=O)OC(C)(C)C)c2ccccc2[C@@]12CN=C(NC1CCCCC1)S2` (racemic): the IC50 in assay [1] worked out at 32 µM; in assay [2], 5.2 µM; in assay [3], 26.1 µM; in assay [4], 27.5 µM; in assay [5], 5.1 µM; in assay [6], 27.7 µM.

For the molecule `CO[C@@H]1N(C(=O)OC(C)(C)C)c2ccccc2[C@@]12CN=C(Nc1ccc(Cl)cc1)S2` (racemic), the half-maximal inhibitory concentration (IC50) in assay [1] was 10 µM; in assay [2] it was 7 µM; in assay [3], 20.5 µM; in assay [4], 16 µM; in assay [5] it was 19 µM; in assay [6], 16.5 µM.
